Reference: EP2559433A1, “Composition for lowering blood lipid and elevating high-density lipoprotein and method for manufacturing the same” (Sunway Biotech Co., Ltd., priority 2011, dated 2013)

Key:
[1] = test system: hamsters feed with high cholesterol diet; assay: Cholesterol parameters in blood of hamsters fed a high cholesterol diet; assay type: in vivo; design: TC reducing rate / TG reducing rate / LDL-C reducing rate / LDL/HDL reducing rate / MDA reducing rate: concentration or dose not given beside the values; details: for LDL/HDL: ratio of LDL-C to HDL-C; for LDL/HDL / HDL-C content / LDL-C content / MDA content / TC content / TG content: high cholesterol diet hamsters fed for 8 weeks; for HDL-C increasing rate / LDL-C reducing rate / LDL/HDL reducing rate / MDA reducing rate / TC reducing rate / TG reducing rate: relative to HC (high cholesterol diet group), 8 weeks; for HDL-C content: serum high density lipoprotein cholesterol; for LDL-C content: serum low density lipoprotein cholesterol; for MDA content: serum malondialdehyde; for TC content: serum total cholesterol, mean ± spread; for TG content: serum triglyceride
Description: Hereinafter, the composition of the first preferred embodiment is called as monascin (MS for abbreviation), and the amount of the monascin taken by an experimental animal is equivalent to 9.82 mg taken by an adult human per day; the composition of the second preferred embodiment is called as ankaflavin (AF for abbreviation), and the amount of the ankaflavin taken by an experimental animal is equivalent to 1.43 mg taken by an adult human per day; the composition of the third preferred embodiment is called as monascin + ankaflavin (MS+AF for abbreviation), and the amount of the monascin and ankaflavin taken by an experimental animal are equivalent to 9.82 mg and 1.43 mg taken by an adult human per day respectively. Additionally, a composition containing monacolin K is utilized as a comparison group, which is called as MK for abbreviation.
(§1) Firstly, the experiment utilizes hamsters feed with high cholesterol diet as experimental animals, which are then feed with MS, AF, MS+AF, and MK for 8 weeks, and then each of cholesterol parameters in blood of the hamsters are analyzed. The cholesterol parameters include total cholesterol (TC), triglyceride (TG), high density lipoprotein cholesterol (HDL-C), low density lipoprotein cholesterol (LDL-C), ratio of LDL-C to HDL-C, and malondialdehyde (MDA). The amount of the MK taken by the experimental animals is equivalent to 2.89 mg taken by an adult human per day. Additionally, a normal diet group is referred to as NOR, and a high cholesterol diet group is referred to as HC.
Referring to the following table 1 and table 2, wherein the table 1 illustrates the results of the above-mentioned animal experiments, and the table 2 illustrates the reducing rate or the increasing rate of MS, AF, MS+AF, and MK relative to HC. […] In the results of the reducing rate of LDL-C, although the group of MS has the effect almost the same as MK, the groups of AF and MS+AF have the effect of lowering the amount of LDL-C better than the MK group. […]

[2] = test system: lipid plaque on arterial vascular walls in the thoracic cavity; assay: Lipid plaque staining in arteries; assay type: in vivo, hamsters; details: Fig. 11; high cholesterol diet for eight weeks; MK 2.89 mg, MS 9.82 mg, AF 1.43 mg adult human equivalent per day
Description: as §1
Another important indicator for evaluating atherosclerosis is the analysis of lipid plaque staining in arteries, and the results of lipid plaque staining can indicate that whether lipid plaque deposits on arterial vascular walls. Large amounts of lipid with over-oxidation can cause bulk deposition of foam cells, and then the vascular walls lose elasticity and large amounts of lipid plaque are deposited, so as to lead to atherosclerosis. Referring to Fig. 11, which is a diagram of quantitative results of the lipid plaque staining experiment.

cholesterol biosynthesis = assay: Cell experiment on inhibition of cholesterol biosynthesis; assay type: cell-based; details: Fig. 12; cells treated at the same concentration (100 ppb)
Text: In order to compare the inhibitory effect of cholesterol biosynthesis by monascin, ankaflavin and monacolin K, the present invention applies a cell experiment and treats cells with monascin, ankaflavin and monacolin K with the same concentration (100 ppb) for researching the influence of these ingredients on the cholesterol biosynthesis. Referring to Fig. 12, which is a comparative diagram for the effect of the inhibition of cholesterol by monascin, ankaflavin and monacolin K with the same concentration.

SMILES | LDL/HDL [1] | HDL-C increasing rate [1] [%] | LDL-C reducing rate [1] [%] | LDL/HDL reducing rate [1] [%] | MDA reducing rate [1] [%] | TC reducing rate [1] [%] | TG reducing rate [1] [%] | HDL-C content [1] [mg/dL] | LDL-C content [1] [mg/dL] | MDA content [1] [mg/dL] | TC content [1] [mg/dL] | TG content [1] [mg/dL] | amount of lipid plaque [2] | effect of inhibiting the biosynthesis of cholesterol (cholesterol biosynthesis)
C/C=C/C1=CC2=C(CO1)C(=O)[C@]1(C)OC(=O)[C@H](C(=O)CCCCC)[C@H]1C2 [MS, monascin] | 0.416 ±0.022 | 14.1 | 33.9 | 26.9 | 40.1 | 29.9 | 63.4 | 114.2 ± 9.36 | 45.1 ± 3.36 | 8.62 ± 1.45 | 165.8 ± 10.6 | 82.8 ± 9.0 |  | 
C/C=C/C1=CC2=C(CO1)C(=O)[C@]1(C)OC(=O)[C@H](C(=O)CCCCCCC)[C@H]1C2 [AF, ankaflavin] | 0.355 ±0.049 | 17.3 | 42.3 | 37.6 | 59.6 | 28.6 | 58.2 | 118.6 ± 8.09 | 39.4 ± 5.80 | 9.07 ± 1.45 | 168.9 ± 11.5 | 94.5 ± 18.0 |  | 
CC[C@H](C)C(=O)O[C@H]1C[C@@H](C)C=C2C=C[C@H](C)[C@H](CC[C@@H]3C[C@@H](O)CC(=O)O3)[C@H]21 [MK, monacolin K, reference compound] | 0.489 ±0.050 | -1.2 | 34.1 | 14.1 | 16.5 | 19.6 | 42.1 | 96.9 ± 8.84 | 45.0 ± 6.97 | 10.37 ± 1.73 | 190.3 ± 25.1 | 131.1 ± 36.7 | can lower the amount of lipid plaque | has the weakest effect
